One molecule from patent US9480722B2, “Method of alleviating or treating periodontal disease” (priority 2012, dated 2016) can be followed below.

In assay [1] the test system is Porphyromonas gingivalis. The experiment in a line: Determination of minimal bactericidal concentration (MBC), plating on sBHI agar with 5% defibrinated sheep blood. It counts as cell-based. On the procedure: Porphyromonas gingivalis was purchased from Food Industry Research and Development Institute ([…], Taiwan) with the accession number BCRC 14417. After thawing from frozen tube, Porphyromonas gingivalis was activated in the supplemented brain heart infusion broth, and cultured at 37° C. anaerobic condition (80% N2, 10% H2, 10% CO2) for 24 hours to 48 hours. […] Chlorhexidine was used as positive control. […]. After Porphyromonas gingivalis with said solution of Antrodia camphorata 95% ethanol extract or chlorhexidine were cultured at 37° C. under anaerobic condition (80% N2, 10% H2, 10% CO2) for 48 hours, 10 μl aliquot […] was added to supplemented brain heart infusion agar with 5% defibrinated sheep blood. Then, broth was gently coated uniformly onto supplemented brain heart infusion agar with 5% defibrinated sheep blood by a triangular sterilized glass rod and cultured at 37° C. anaerobic condition (80% N2, 10% H2, 10% CO2) for 5 days. […] ([…] Castro et al., 2009, Bioorganic & Medicinal Chemistry, 17:5332-5335)

In assay [2] the test system is Porphyromonas gingivalis. The experiment in a line: Determination of minimal inhibitory concentration (MIC), broth microplate, absorbance at 600 nm. The class given is cell-based. As to conditions: BCRC14417, P. gingivalis BCRC 14417, 24 hours anaerobic, 37° C., concentration at absorbance ≦0.5 at 600 nm. On the procedure: Porphyromonas gingivalis was purchased from Food Industry Research and Development Institute ([…], Taiwan) with the accession number BCRC 14417. After thawing from frozen tube, Porphyromonas gingivalis was activated in the supplemented brain heart infusion broth, and cultured at 37° C. anaerobic condition (80% N2, 10% H2, 10% CO2) for 24 hours to 48 hours. […] Chlorhexidine was used as positive control. The 2.5% (v/v) dimethyl sulfoxide was used as normal control.

Molecules are shown by their SMILES.

What is called MBC is the smallest concentration meeting the test's criterion for killing. The MIC is the least concentration at which growth counts as inhibited. Read a high MIC as a need for much substance. `[H]/N=C(\N/C(=N/[H])NCCCCCCNC(=N)NC(=N)Nc1ccc(Cl)cc1)Nc1ccc(Cl)cc1` [Chlorhexidine, Chlorhexidine digluconate] returned an MBC against Porphyromonas gingivalis [1] (Porphyromonas gingivalis, BCRC14417) of 4 µg/mL. For the same molecule, in the assay with Porphyromonas gingivalis [1] (concentration above 4 μg/ml, FIG. 3), the “colony growth on supplemented brain heart infusion agar with 5% defibrinated sheep blood” value was “no colony growing”. Also, the MIC with Porphyromonas gingivalis [2] turned out to be 4 µg/mL.
